Source: US20240165074A1, “COMPOSITION OF THE PHYTOCOMPOUNDS INTENDED TO ENHANCE CYTOTOXIC ACTIVITY IN THE TREATMENT OF ACUTE LYMPHOBLASTIC LEUKEMIA” (GDANSKI UNIWERSYTET MEDYCZNY, priority 2021, published 2024)
Like-named read-outs stand apart in the source and are kept apart here.

Key:
[1] = test system: MOLT-4 (the line of human ALL leukemia); assay: MTT viability test on MOLT-4 cells; assay type: cell-based; conditions: for time after which viability of MOLT-4 neoplastic cells was reduced: bioavailable dose (1×), MTT; for impact on viability of MOLT-4 cells: even at doses attainable exclusively in vitro (2×)
Method: (§1) 1. Viability Test Comprising the Use of a Test Cell Line (Cultures in the Presence of Individual Phytochemicals or their Mix) and the Control Line
(§2) The test is based on an assessment of the enzymatic activity of mitochondria using MTT, 3-(4,5-Dimethylthiazol-2-yl)-2,5-diphenyltetrazolium) bromide. Live and metabolically active cells reduce MTT to formazan crystals. In the test, a 96-well plate was seeded with […] per well in the volume of 50 μl of standard culture medium, followed by the addition of serial dilutions of the analysed compounds in the volume of 50 μl of the culture medium to obtain the final volume of 100 μl. An identical quantity of the solvent without the analysed phytocompounds was added to the control wells. The phytocompounds were stored dissolved in 100% DMSO, and therefore each dilution and the culture media added for control were supplemented with DMSO up to the non-toxic final concentration of 0.05%. The viability of the cells was assessed after a specific incubation time (24-, 48-, or 72-hours) by adding 20 μl of the yellow MTT solution to each well, and the colorimetric conversion of MTT into purple formazan crystals was assessed after 2-3 hours of incubation by dissolving the crystals with acidic isopropanol and taking a spectrophotometric measurement at the wavelength of 570 nm.
The measurements of cell viability with the application of this assay were performed on the following lines: MOLT-4 (the line of human ALL leukemia, a standard cell line used to assess the effects of pharmaceutical compounds on this type of leukemias) and BJ (human foreskin fibroblasts, primary cells grown in a short-term culture).

[2] = defines dose 1×; cited from earlier work
[3] = test system: BJ (human foreskin fibroblasts); assay: MTT viability test on BJ control cells; assay type: cell-based; conditions: 0.5×, 1×, 2×; 24 and 72 hours (FIG. 2)
Method: as §1
as §2, with “nm. […]” for “nm.”

SMILES	cytotoxicity to MOLT-4 cells [1]	time after which viability of MOLT-4 neoplastic cells was reduced ([1]; single compound)	maximum level of bioavailability of the compound in the blood [2]	time after which the biological effect (reduced MOLT-4 viability) was attained ([1]; dose 0.5×)	cytotoxicity to MOLT-4 cells ([1]; single compound, dose 2×)	viability of BJ cells [3]	impact on viability of MOLT-4 cells ([1]; single compound)
COc1cc(/C=C/C(=O)CC(=O)/C=C/c2ccc(O)c(OC)c2)ccc1O [curcumin]	relatively highly cytotoxic	72 h	2.25 µg/mL				
O=c1c(-c2ccc(O)cc2)coc2cc(O)cc(O)c12 [genistein]		48 h	3 µg/mL	72 hours	relatively highly cytotoxic	do not decrease the viability	
O=c1c(O)c(-c2ccc(O)c(O)c2)oc2cc(O)cc(O)c12 [quercetin]			1.5 µg/mL				did not demonstrate any impact on the viability
Oc1ccc(C=Cc2cc(O)cc(O)c2)cc1 [resveratrol]			0.5 µg/mL				did not demonstrate any impact on the viability
